21 compounds from patent US12084420B2, “Indoline compounds for inhibiting KIF18A” (Volastra Therapeutics, Inc., priority 2021, dated 2024) can be followed below.

This assay deals with hKIF18A (1-374) (Homo sapiens (Human), UniProt Q8NI77). The assay can be described thus: Inhibition of KIF18A microtubule-dependent ATPase activity (ADP-Glo). Particulars: KIF18A microtubule-dependent ATPase activity, biochemical assay.
hKIF18A (1-374), sequence (Q8NI77 whole entry, looked up): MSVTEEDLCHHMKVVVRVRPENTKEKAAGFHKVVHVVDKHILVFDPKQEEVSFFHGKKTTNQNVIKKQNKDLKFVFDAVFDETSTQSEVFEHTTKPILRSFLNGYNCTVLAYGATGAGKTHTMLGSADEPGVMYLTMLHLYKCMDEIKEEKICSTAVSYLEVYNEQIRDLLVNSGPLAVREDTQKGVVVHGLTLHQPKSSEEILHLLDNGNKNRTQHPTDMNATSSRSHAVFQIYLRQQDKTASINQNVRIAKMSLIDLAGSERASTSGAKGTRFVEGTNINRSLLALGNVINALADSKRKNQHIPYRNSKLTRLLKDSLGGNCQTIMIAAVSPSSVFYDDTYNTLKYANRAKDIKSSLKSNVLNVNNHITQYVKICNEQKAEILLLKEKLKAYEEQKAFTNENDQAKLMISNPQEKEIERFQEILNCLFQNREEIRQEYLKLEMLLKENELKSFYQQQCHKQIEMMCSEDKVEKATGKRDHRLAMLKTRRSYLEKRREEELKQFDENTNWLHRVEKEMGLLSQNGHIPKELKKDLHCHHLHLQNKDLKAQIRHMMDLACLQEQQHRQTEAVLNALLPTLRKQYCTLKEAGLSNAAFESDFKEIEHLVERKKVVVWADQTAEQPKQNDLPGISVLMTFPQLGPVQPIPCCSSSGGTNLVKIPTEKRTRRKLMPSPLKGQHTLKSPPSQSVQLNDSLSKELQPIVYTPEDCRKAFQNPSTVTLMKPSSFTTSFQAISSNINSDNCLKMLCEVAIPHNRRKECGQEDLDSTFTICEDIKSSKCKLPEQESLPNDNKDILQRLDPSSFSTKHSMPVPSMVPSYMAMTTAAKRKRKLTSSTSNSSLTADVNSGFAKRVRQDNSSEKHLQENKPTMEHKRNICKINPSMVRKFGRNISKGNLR
hKIF18A (1-374), sequence (Q2XVP4 whole entry partner, looked up): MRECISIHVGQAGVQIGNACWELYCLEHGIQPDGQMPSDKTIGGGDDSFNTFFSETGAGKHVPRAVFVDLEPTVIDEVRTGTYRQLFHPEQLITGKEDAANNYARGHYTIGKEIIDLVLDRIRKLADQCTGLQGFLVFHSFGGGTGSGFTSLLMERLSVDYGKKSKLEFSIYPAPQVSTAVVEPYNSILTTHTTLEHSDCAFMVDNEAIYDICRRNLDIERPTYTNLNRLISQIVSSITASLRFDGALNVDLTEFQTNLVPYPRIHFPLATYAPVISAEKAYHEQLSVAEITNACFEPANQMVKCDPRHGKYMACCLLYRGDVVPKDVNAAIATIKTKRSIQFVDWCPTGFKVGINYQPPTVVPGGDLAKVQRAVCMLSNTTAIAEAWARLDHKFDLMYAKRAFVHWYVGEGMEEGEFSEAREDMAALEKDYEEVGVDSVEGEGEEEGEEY
hKIF18A (1-374), sequence (P02554 whole entry partner, looked up): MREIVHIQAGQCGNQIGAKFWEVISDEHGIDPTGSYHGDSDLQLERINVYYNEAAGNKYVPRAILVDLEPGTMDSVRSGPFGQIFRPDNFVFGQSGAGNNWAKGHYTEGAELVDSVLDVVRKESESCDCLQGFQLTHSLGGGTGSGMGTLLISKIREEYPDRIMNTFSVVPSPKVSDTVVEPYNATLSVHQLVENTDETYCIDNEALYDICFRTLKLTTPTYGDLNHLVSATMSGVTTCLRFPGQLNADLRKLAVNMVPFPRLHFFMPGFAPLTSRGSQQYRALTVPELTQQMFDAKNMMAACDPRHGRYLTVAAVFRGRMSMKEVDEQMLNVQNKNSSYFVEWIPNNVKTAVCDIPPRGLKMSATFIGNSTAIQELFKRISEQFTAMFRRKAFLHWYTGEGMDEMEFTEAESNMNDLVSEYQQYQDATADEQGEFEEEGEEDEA
One may read the IC50 as the concentration that gives 50% inhibition. A lower IC50 goes with greater potency. On to `CS(=O)(=O)Nc1ccc2c(c1)C1(CCC3(CC3)CC1)CN2C(=O)c1cccc(C(O)CN2CCC(F)(F)CC2)c1` (stereo not drawn) [Compound 315, N-(1″-(3-(2-(4,4-difluoropiperidin-1-yl)-1-hydroxyethyl)benzoyl)dispiro[cyclopropane-1,1′-cyclohexane-4′,3″-indolin]-5″-yl)methanesulfonamide], for which inhibition was half-maximal at 53 nM (IC50).
For `CS(=O)(=O)Nc1ccc2c(c1)C1(CCC3(CC3)CC1)CN2C(=O)c1ccnc(C(O)C2CCCC2)c1` (stereo not drawn) [Compound 316, N-(1″-(2-(cyclopentyl(hydroxy)methyl)isonicotinoyl)dispiro[cyclopropane-1,1′-cyclohexane-4′,3″-indolin]-5″- yl)methanesulfonamide] the value was 18 nM; for `CS(=O)(=O)Nc1ccc2c(c1)C1(CCC3(CC3)CC1)CN2C(=O)c1cccc(C(O)C2CCCC2)n1` (stereo not drawn) [Compound 317, N-(1″-(6-(cyclopentyl(hydroxy)methyl)picolinoyl)dispiro[cyclopropane-1,1′-cyclohexane-4′,3″-indolin]-5″- yl)methanesulfonamide], 11 nM.
Turning to `CS(=O)(=O)Nc1ccc2c(c1)C1(CCC3(CC3)CC1)CN2C(=O)c1ccc(S(=O)(=O)N2CC3(CCC3)C2)o1` [Compound 321, N-(1″-(5-((2-azaspiro[3.3]heptan-2-yl)sulfonyl)furan-2-carbonyl)dispiro[cyclopropane-1,1′-cyclohexane-4′,3″-indolin]-5″- yl)methanesulfonamide], it took 6.3 nM to reach half-maximal inhibition (IC50).
For `C=C1CCC2(CC1)CN(C(=O)c1cccc(S(=O)(=O)NC(C)(C)C)c1)c1ccc(NS(C)(=O)=O)cc12` [Compound 324, N-(tert-butyl)-3-(4-methylene-5′-(methylsulfonamido)spiro[cyclohexane-1,3′-indoline]-1′-carbonyl)benzenesulfonamide] the value was 21 nM; for `CC(C)S(=O)(=O)c1cccc(C(=O)N2CC3(CCC4(CC4)CC3)c3cc(NS(C)(=O)=O)ccc32)c1` [Compound 326, N-(1″-(3-(isopropylsulfonyl)benzoyl)dispiro [cyclopropane-1,1′-cyclohexane-4′,3″- indolin]-5″-yl)methanesulfonamide], 50 nM.
For `CCS(=O)(=O)Nc1ccc2c(c1)C1(CCC(F)(F)CC1)CN2C(=O)c1cccc(S(=O)(=O)NC(C)(C)C)c1` [Compound 327, N-(tert-butyl)-3-(5′-(ethylsulfonamido)-4,4-difluorospiro[cyclohexane-1,3′-indoline]-1′-carbonyl)benzenesulfonamide] the value was 44 nM.
Next, `CC1(F)CCC2(CC1)CN(C(=O)c1cccc(S(=O)(=O)NC(C)(C)C)c1)c1ccc(NS(C)(=O)=O)cc12` (stereo not drawn) [Compound 329, N-(tert-butyl)-3-(4-fluoro-4-methyl-5′-(methylsulfonamido)spiro[cyclohexane-1,3′-indoline]-1′-carbonyl)benzenesulfonamide]: 72 nM; `CS(=O)(=O)Nc1ccc2c(c1)C1(CCC3(CC3)CC1)CN2C(=O)c1csc(S(=O)(=O)C2CCCC2)c1` [Compound 330, N-(1″-(5-(cyclopentylsulfonyl)thiophene-3-carbonyl)dispiro[cyclopropane-1,1′-cyclohexane-4′,3″-indolin]-5″- yl)methanesulfonamide]: 12 nM.
In turn, `CC(O)(c1cccc(C(=O)N2CC3(CCC4(CC4)CC3)c3cc(NS(C)(=O)=O)ccc32)c1)C1CCCC1` (stereo not drawn) [Compound 331, N-(1″-(3-(1-cyclopentyl-1-hydroxyethyl)benzoyl)dispiro[cyclopropane-1,1′-cyclohexane-4′,3″-indolin]-5″-yl)methanesulfonamide] registered an IC50 of 35 nM.
Next, `CC(O)c1ccc2c(c1)C1(CCC3(CC3)CC1)CN2C(=O)c1cccc(S(=O)(=O)NC(C)(C)C)c1` (stereo not drawn) [Compound 332, N-(tert-butyl)-3-(5″-(1-hydroxyethyl)dispiro[cyclopropane-1,1′-cyclohexane-4′,3″-indoline]-1″-carbonyl)benzenesulfonamide]: 150 nM; `CS(=O)(=O)Nc1ccc2c(c1)C1(CCC3(CC3)CC1)CN2C(=O)c1cccc(S(=O)(=O)CC2CCC2)c1` [Compound 335, N-(1″-(3-((cyclobutylmethyl)sulfonyl)benzoyl)dispiro[cyclopropane-1,1′-cyclohexane-4′,3″-indolin]-5″-yl)methanesulfonamide]: 9.3 nM; `CS(=O)(=O)Nc1ccc2c(c1)[C@]1(CC[C@@H](C(F)F)CC1)CN2C(=O)c1cccc(S(=O)(=O)NC23CC(C2)C3)c1` [Compound 336a]: 8.5 nM.
Next, `CS(=O)(=O)Nc1ccc2c(c1)[C@]1(CC[C@H](C(F)F)CC1)CN2C(=O)c1cccc(S(=O)(=O)NC23CC(C2)C3)c1` [Compound 336b]: 17 nM.
For `CS(=O)(=O)Nc1ccc2c(c1)C1(CCC3(CC3)CC1)CN2C(=O)c1ccc(F)c(S(=O)(=O)NC23CC(C2)C3)c1` [Compound 337, N-(bicyclo[1.1.1]pentan-1-yl)-2-fluoro-5-(5″-(methylsulfonamido)dispiro[cyclopropane-1,1′-cyclohexane-4′,3″-indoline]-1″- carbonyl)benzenesulfonamide] the value was 8.8 nM; for `CC(C)(C)NS(=O)(=O)c1cccc(C(=O)N2CC3(CCC4(CC4)CC3)c3cc(C(O)C(F)(F)F)ccc32)c1` (stereo not drawn) [Compound 338, N-(tert-butyl)-3-(5″-(2,2,2-trifluoro-1-hydroxyethyl)dispiro[cyclopropane-1,1′-cyclohexane-4′,3″-indoline]-1″-carbonyl)benzenesulfonamide], 49 nM.
`CS(=O)(=O)Nc1ccc2c(c1)C1(CCC3(CC3)CC1)CN2C(=O)c1cccc(C(C#N)C2CCCC2)c1` (stereo not drawn) [Compound 339, N-(1″-(3-(cyano(cyclopentyl)methyl)benzoyl)dispiro[cyclopropane-1,1′-cyclohexane-4′,3″-indolin]-5″- yl)methanesulfonamide] had an IC50 of 24 nM.
For `CCS(=O)(=O)Nc1ccc2c(c1)C1(CCC3(CC3)CC1)CN2C(=O)c1ccc(F)c(S(=O)(=O)NC(C)(C)C)c1` [Compound 340, N-(tert-butyl)-5-(5″- (ethylsulfonamido)dispiro[cyclopropane-1,1′-cyclohexane-4′,3″-indoline]-1″- carbonyl)-2-fluorobenzenesulfonamide] the value was 18 nM.
Next, `CC(c1cccc(C(=O)N2CC3(CCC4(CC4)CC3)c3cc(NS(C)(=O)=O)ccc32)c1)N1CCC(F)(F)CC1` (stereo not drawn) [Compound 341, N-(1″-(3-(1-(4,4-difluoropiperidin-1-yl)ethyl)benzoyl)dispiro[cyclopropane-1,1′-cyclohexane-4′,3″-indolin]-5″-yl)methanesulfonamide]: 25 nM; `CS(=O)(=O)Nc1ccc2c(c1)C1(CCC3(CC3)CC1)CN2C(=O)c1cccc(CN2CCC(F)(F)CC2)n1` [Compound 342, N-(1″-(6-((4,4-difluoropiperidin-1-yl)methyl)picolinoyl)dispiro[cyclopropane-1,1′-cyclohexane-4′,3″-indolin]-5″- yl)methanesulfonamide]: 20 nM; `Cc1cc(C(=O)N2CC3(CCC4(CC4)CC3)c3cc(NS(C)(=O)=O)ccc32)nc(CN2CCC(F)(F)CC2)n1` [Compound 343, N-(1″-(2-((4,4-difluoropiperidin-1-yl)methyl)-6-methylpyrimidine-4-carbonyl)dispiro[cyclopropane-1,1′-cyclohexane-4′,3″-indolin]-5″- yl)methanesulfonamide]: 810 nM.
